# pEC50: −log10 of the molar value. Where two headings read alike, the source gives them in different places.
# What was measured:
# [1] = Human Liver Microsomal Stability (Test C); assay type: in vitro ADME
# In short: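 CLint (μl/min/mg protein) derived from compound depletion in human liver microsomes following a published standardized early-DMPK protocol; replicate determinations given as arithmetic mean.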
# [2] = Rat Hepatocyte Stability (Test E); assay type: in vitro ADME; settings: geometric mean if run multiple times
# In short: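 Intrinsic clearance in rat hepatocytes, expressed as μl/min/10^6 cells, following the literature integrated DMPK panel method. Repeat determinations combined as geometric mean.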
# Solubility (Test F) = assay type: physicochemical; settings: arithmetic mean if run multiple times
# Experimental: The assay was conducted according to the Solubility Assay described in pages 164-167 of Wernevik, J. et al., “A Fully Integrated Assay Panel for Early Drug Metabolism and Pharmacokinetics Profiling”, Assay and Drug Development Technologies, 2020, 18(4), 157-179. Data are reported in Table 36 as solubility ([…]. Where the assay was run multiple times for the same compound, the arithmetic mean is reported.
# [3] = Human Hepatocyte Stability (Test D); assay type: in vitro ADME; settings: geometric mean if run multiple times; for hepatocyte CLint at 1 µM: cryopreserved pooled human hepatocytes (LiverPool 10-Donor)
# In short: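 Intrinsic clearance (μL/min/10^6 cells), derived as kV/N from the log-linear loss of parent compound. Compound incubated at 37 °C with cryopreserved pooled human hepatocytes, 0.25×10^6 cells in 0.25 mL L-15; dosing solution 100 μM in acetonitrile. Singlicate incubations, cassette LC-MS; repeats reported as geometric mean.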
# [4] = Human Plasma Protein Binding (Test B); assay type: in vitro ADME; settings: fraction unbound (fu)
# In short: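 Values given as % free (fu) in human plasma, using the method of Wernevik et al. (2020). For compounds tested more than once, the arithmetic mean is given.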
# human RXFP1 = target: T1, human RXFP1 (Homo sapiens, UniProt Q9HBX9); experiment: RXFP1 Hu cAMP (Test A); assay type: cell-based; parameters: expressed in transfected cells; host or cells: Jump-In T-REx CHO-K1 cells (ThermoFisher), induced with 10 ng/ml doxycycline for 24 h
# T1 sequence (Q9HBX9 1-757): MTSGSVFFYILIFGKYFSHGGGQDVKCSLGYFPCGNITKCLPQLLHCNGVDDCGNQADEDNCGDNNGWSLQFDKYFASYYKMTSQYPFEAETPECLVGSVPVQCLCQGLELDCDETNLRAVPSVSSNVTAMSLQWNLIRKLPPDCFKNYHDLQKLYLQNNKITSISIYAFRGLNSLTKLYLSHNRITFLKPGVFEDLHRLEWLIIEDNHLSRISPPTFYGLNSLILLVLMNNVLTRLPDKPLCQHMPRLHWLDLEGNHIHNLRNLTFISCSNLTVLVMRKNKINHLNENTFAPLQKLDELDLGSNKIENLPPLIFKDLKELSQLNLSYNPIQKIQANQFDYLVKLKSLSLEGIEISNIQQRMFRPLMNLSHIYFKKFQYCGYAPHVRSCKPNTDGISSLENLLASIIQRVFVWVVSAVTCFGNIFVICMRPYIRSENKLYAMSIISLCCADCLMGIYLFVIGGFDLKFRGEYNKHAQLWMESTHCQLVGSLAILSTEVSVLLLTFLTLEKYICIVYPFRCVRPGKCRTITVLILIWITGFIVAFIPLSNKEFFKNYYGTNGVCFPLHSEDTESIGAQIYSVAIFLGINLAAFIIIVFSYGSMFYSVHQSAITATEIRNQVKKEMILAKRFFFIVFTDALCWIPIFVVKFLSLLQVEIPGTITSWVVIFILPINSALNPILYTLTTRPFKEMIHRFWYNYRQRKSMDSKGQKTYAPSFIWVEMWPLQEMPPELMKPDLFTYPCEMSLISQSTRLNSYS
# In short: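 Cells: CHO-K1 stably carrying human RXFP1, expressed after 24 h 10 ng/ml doxycycline; 0.5 mM IBMX final, HTRF detection after 2 h at room temperature.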
# [5] = RXFP1 Hu cAMP, read-out: Test A EC50
Structure (SMILES),microsomal CLint ([1]; human liver microsomes),hepatocyte CLint ([2]; rat hepatocytes),solubility (Solubility (Test F)),hepatocyte CLint at 1 µM [3],Test B Human Plasma Protein Binding (% free) [4],Test A Sinf (human RXFP1; RXFP1 Hu cAMP),"pEC50 (human RXFP1; Test A EC50, RXFP1 Hu cAMP)","microsomal CLint ([1]; human, liver microsomes)","hepatocyte CLint ([2]; rat, hepatocytes)",hepatocyte CLint at 1 µM ([3]; human),pEC50 (human RXFP1; [5]),Test C Human Liver Microsomal Stability Clint ([1]; human liver microsomes),Test E Rat Hepatocyte Stability Clint ([2]; rat hepatocytes),Test D Human Hepatocyte Stability Clint ([3]; human hepatocytes)
"COc1cc(C#N)c(OC2CCC(C)(C(=O)O)CC2)cc1C(=O)NC1C(C(=O)NCC2(C)CCC2)C2CCC1N2CCC(F)(F)F (single isomer, unassigned) [Example 536, (1R,4s)-4-(2-Cyano-4-methoxy-5-(((1S*,2S*,3R*,4R*)-3-(((1-methylcyclobutyl)methyl)carbamoyl)-7-(3,3,3-trifluoropropyl)-7-azabicyclo[2.2.1]heptan-2-yl)carbamoyl)phenoxy)-1-methylcyclohexane-1-carboxylic acid]",250 µL/min/mg,43 µL/min/1e6 cells,420 µM,130 µL/min/1e6 cells,3.3 % free,97%,8.29,–,–,–,–,–,–,–
"COc1cc(C#N)c(O[C@H]2CC[C@@](C)(C(=O)O)CC2)cc1C(=O)NC1C2C=CC(CC2)C1C(=O)NCC1(C)CCC1 (single isomer, unassigned) [Example 540, (1R,4s)-4-(2-Cyano-4-methoxy-5-(((1R*,2S*,3R*,4S*)-3-(((1-methylcyclobutyl)methyl)carbamoyl)bicyclo[2.2.2]oct-5-en-2-yl)carbamoyl)phenoxy)-1-methylcyclohexane-1-carboxylic acid]",–,–,1000 µM,–,6 % free,104%,–,20 µL/min/mg,19 µL/min/1e6 cells,8.5 µL/min/1e6 cells,7.70,–,–,–
"COc1cc(F)c(OC2CCC(C)(C(=O)O)CC2)cc1C(=O)NC1C2CCC(CC2)C1C(=O)NCC1(C)CCC1 (single isomer, unassigned) [Example 542, (1R,4s)-4-(2-Fluoro-4-methoxy-5-(((2S*,3R*)-3-(((1-methylcyclobutyl)methyl)carbamoyl)bicyclo[2.2.2]octan-2-yl)carbamoyl)phenoxy)-1-methylcyclohexane-1-carboxylic acid]",–,–,800 µM,–,2.5 % free,110%,–,66 µL/min/mg,12 µL/min/1e6 cells,32 µL/min/1e6 cells,7.96,–,–,–
"COc1cc(F)c(-c2ccc(C(=O)O)cc2)cc1C(=O)N[C@@H]1[C@H](C(=O)Nc2cccc(S(=O)(=O)C(F)(F)F)c2)[C@H]2C=C[C@@H]1C2 (single isomer, unassigned) [Example 553]",–,–,> 1000 µM,–,<0.30 % free,–,–,9.9 µL/min/mg,18 µL/min/1e6 cells,9.2 µL/min/1e6 cells,< 4.30,–,–,–
"COc1cc(F)c(-c2cccc(C(=O)O)c2)cc1C(=O)N[C@H]1[C@@H](C(=O)Nc2cccc(S(=O)(=O)C(F)(F)F)c2)[C@@H]2C=C[C@H]1C2 (single isomer, unassigned) [Example 554]",–,–,700 µM,–,<0.30 % free,103%,–,< 3 µL/min/mg,18 µL/min/1e6 cells,5.4 µL/min/1e6 cells,–,–,–,–
"COc1cc(F)c(-c2cccc(C(=O)O)c2)cc1C(=O)N[C@@H]1[C@H](C(=O)Nc2cccc(S(=O)(=O)C(F)(F)F)c2)[C@H]2C=C[C@@H]1C2 (single isomer, unassigned) [Example 555]",–,–,560 µM,–,<0.30 % free,–,–,21 µL/min/mg,18 µL/min/1e6 cells,13 µL/min/1e6 cells,< 4.30,–,–,–
"COc1cc(F)c(O[C@H]2CC[C@@](C)(C(=O)O)CC2)cc1C(=O)NC1C2CCC(C2)C1C(=O)Nc1cccc(S(=O)(=O)C(F)(F)F)c1 (single isomer, unassigned) [Example 586, (1R,4s)-4-(2-Fluoro-4-methoxy-5-(((1S*,2S*,3R*,4R*)-3-((3-((trifluoromethyl)sulfonyl)phenyl)carbamoyl)bicyclo[2.2.1]heptan-2-yl)carbamoyl)phenoxy)-1-methylcyclohexane-1-carboxylic acid]",–,–,190 µM,–,0.33 % free,105%,–,12 µL/min/mg,17 µL/min/1e6 cells,4.3 µL/min/1e6 cells,8.82,–,–,–
"COc1cc(F)c(-c2ccc(C(=O)O)cc2)cc1C(=O)N[C@H]1[C@@H]2CC[C@@H](C2)[C@H]1C(=O)Nc1ccc(F)c(C(F)(F)F)c1 (single isomer, unassigned) [Example 591]",–,–,> 1000 µM,–,<0.36 % free,111%,–,19 µL/min/mg,28 µL/min/1e6 cells,140 µL/min/1e6 cells,–,–,–,–
"COc1cc(F)c(O[C@H]2CC[C@@](C)(C(=O)O)CC2)cc1C(=O)N[C@H]1C[C@@H](OC)C[C@H]1C(=O)Nc1cccc(S(=O)(=O)C(F)(F)F)c1 (stereo in doubt) [Example 523, (1R,4s)-4-(2-fluoro-4-methoxy-5-(((1S*,2R*,4S*)-4-methoxy-2-((3-((trifluoromethyl)sulfonyl)phenyl)carbamoyl)cyclopentyl)carbamoyl)phenoxy)-1-methylcyclohexane-1-carboxylic acid]",–,–,920 µM,–,4 % free,95%,–,–,–,–,6.57,>300 µL/min/mg,34 μL/min/10^6 cells,49 μL/min/10^6 cells
"Cc1cc(F)c(O[C@H]2CC[C@@](C)(C(=O)O)CC2)cc1C(=O)N[C@@H]1[C@H]2CC[C@H](C2)[C@@H]1C(=O)NCC1(C)CCC1 [Example 5, (1S,4s)-4-(2-Fluoro-4-methyl-5-(((1S,2R,3S,4R)-3-(((1-methylcyclobutyl)methyl)carbamoyl)bicyclo[2.2.1]heptan-2-yl)carbamoyl)phenoxy)-1-methylcyclohexane-1-carboxylic acid]",–,–,800 µM,–,2.4 % free,85%,< 5.77,16 µL/min/mg,11 µL/min/1e6 cells,15 µL/min/1e6 cells,–,–,–,–
"COc1cc(F)c(O[C@H]2CC[C@@H](C(=O)O)CC2)cc1C(=O)N[C@@H]1[C@H]2CC[C@H](C2)[C@@H]1C(=O)Nc1cccc(C(F)F)c1 [Example 10, (1S,4s)-4-(5-(((1S,2R,3S,4R)-3-((3-(Difluoromethyl)phenyl)carbamoyl)bicyclo[2.2.1]heptan-2-yl)carbamoyl)-2-fluoro-4-methoxyphenoxy)cyclohexane-1-carboxylic acid]",–,–,750 µM,–,2.2 % free,104%,–,32 µL/min/mg,130 µL/min/1e6 cells,11 µL/min/1e6 cells,6.30,–,–,–
"COc1cc(F)c(O[C@H]2CC[C@@](C)(C(=O)O)CC2)cc1C(=O)N[C@@H]1[C@H]2CC[C@H](C2)[C@@H]1C(=O)NCC(C)(C)C [Example 35, (1S,4s)-4-(2-Fluoro-4-methoxy-5-(((1S,2R,3S,4R)-3-(neopentylcarbamoyl)bicyclo[2.2.1]heptan-2-yl)carbamoyl)phenoxy)-1-methylcyclohexane-1-carboxylic acid]",–,–,> 730 µM,–,8.2 % free,–,7.41,14 µL/min/mg,23 µL/min/1e6 cells,2.7 µL/min/1e6 cells,–,–,–,–
